In patent publication US11058745B1, “Stable liquid pharmaceutical compositions of daptomycin” (JNF LLC., priority 2018, dated 2021):

Experiment: Chemical stability of daptomycin formulations on storage (daptomycin peak purity, anhydrodaptomycin impurity)
Format: physicochemical
Settings: with only propylene glycol, 2-8° C.
Description: For purposes of the present invention, “stable” or “substantially stable” with respect to liquid daptomycin compositions shall be understood to mean compositions having less than about 5% anhydrodaptomycin impurity compared to a reference standard and/or having a peak purity of at least about 95% after 1 month at room temperature or 12 months at refrigerated temperatures of from about 2 to about 8° C. Impurity and peak purity calculated based on integration of major impurity anhydrodaptomycin and daptomycin peaks only and minor impurities not accounted for calculations.
Note: Impurities presented here represent increase compared to standard injections. The peak at RRT of about 1.12 (Anhydrodaptomycin) is major impurity that increases over the time. The same impurity is also present in standard injections to the extent of 0.6 to 0.8%. Here onwards, impurity means it is Anhydrodaptomycin and peak purity refers to area percentage of Daptomycin, when only two peaks are integrated, Daptomycin and Anhydrodaptomycin.
Note: Impurities presented here represent increase compared to standard injections. The peak at RRT 1.12 (Anhydrodaptomycin) is major impurity that increases over the time. The same impurity is also present in standard injections to the extent of 0.6 to 0.8%.

## CCCCCCCCCC(=O)N[C@@H](Cc1c[nH]c2ccccc12)C(=O)N[C@H](CC(N)=O)C(=O)N[C@@H](CC(=O)O)C(=O)N[C@@H]1C(=O)NCC(=O)N[C@@H](CCCN)C(=O)N[C@@H](CC(=O)O)C(=O)N[C@H](C)C(=O)N[C@@H](CC(=O)O)C(=O)NCC(=O)N[C@H](CO)C(=O)N[C@@H]([C@H](C)CC(=O)O)C(=O)N[C@@H](CC(=O)c2ccccc2N)C(=O)O[C@@H]1C [Daptomycin]
  stable up to (time): up to 1 month
